What all share (type): biochemical
For one experiment, the target named is T1, MKK6 (Homo sapiens, UniProt P52564).
T1 sequence (P52564 1-334): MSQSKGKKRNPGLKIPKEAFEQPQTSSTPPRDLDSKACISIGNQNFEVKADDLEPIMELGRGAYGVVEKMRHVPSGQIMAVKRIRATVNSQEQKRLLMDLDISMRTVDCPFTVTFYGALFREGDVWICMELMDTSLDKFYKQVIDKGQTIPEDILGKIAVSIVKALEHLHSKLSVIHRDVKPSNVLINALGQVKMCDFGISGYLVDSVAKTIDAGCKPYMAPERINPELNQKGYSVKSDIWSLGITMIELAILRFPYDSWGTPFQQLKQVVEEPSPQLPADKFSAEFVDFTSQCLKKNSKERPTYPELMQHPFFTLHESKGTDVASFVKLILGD
The experiment is described as follows: Kinase profiling MKK6. Conditions: read-out: residual kinase activity, MKK6. The source says: (§1) Any value less that 25 is considered to be highly significant inhibition.

Another experiment deals with JNK2 (Homo sapiens, UniProt P45984). The experiment is described as follows: Kinase profiling JNK2. The settings on record: read-out: residual kinase activity, JNK2.
Text: as §1

A further experiment concerns the target T2, MST2 (Homo sapiens, UniProt Q13188).
T2 sequence (Q13188 1-491): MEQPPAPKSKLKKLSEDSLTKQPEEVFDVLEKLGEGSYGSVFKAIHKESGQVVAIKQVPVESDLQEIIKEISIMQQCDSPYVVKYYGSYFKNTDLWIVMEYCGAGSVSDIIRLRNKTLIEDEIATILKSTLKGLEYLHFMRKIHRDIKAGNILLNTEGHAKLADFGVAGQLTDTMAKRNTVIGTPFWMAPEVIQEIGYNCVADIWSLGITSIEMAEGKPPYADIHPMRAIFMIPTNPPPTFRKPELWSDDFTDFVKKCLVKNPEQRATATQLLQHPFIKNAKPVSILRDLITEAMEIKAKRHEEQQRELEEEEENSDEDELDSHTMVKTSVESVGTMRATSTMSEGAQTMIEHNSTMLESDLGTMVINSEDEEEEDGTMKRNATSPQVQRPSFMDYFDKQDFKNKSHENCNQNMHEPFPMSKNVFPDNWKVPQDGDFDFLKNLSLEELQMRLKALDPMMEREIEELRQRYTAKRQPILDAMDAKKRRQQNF
The experiment is described as follows: Kinase profiling MST2. The settings on record: read-out: residual kinase activity, MST2.
Text: as §1

The target in the next experiment is PAK2 (Homo sapiens, UniProt Q13177). The experiment is described as follows: Kinase profiling PAK2. The settings on record: read-out: residual kinase activity, PAK2.
Text: as §1

In a further experiment the target is T3, PKD1 (Homo sapiens, UniProt Q15139).
T3 sequence (Q15139 1-912): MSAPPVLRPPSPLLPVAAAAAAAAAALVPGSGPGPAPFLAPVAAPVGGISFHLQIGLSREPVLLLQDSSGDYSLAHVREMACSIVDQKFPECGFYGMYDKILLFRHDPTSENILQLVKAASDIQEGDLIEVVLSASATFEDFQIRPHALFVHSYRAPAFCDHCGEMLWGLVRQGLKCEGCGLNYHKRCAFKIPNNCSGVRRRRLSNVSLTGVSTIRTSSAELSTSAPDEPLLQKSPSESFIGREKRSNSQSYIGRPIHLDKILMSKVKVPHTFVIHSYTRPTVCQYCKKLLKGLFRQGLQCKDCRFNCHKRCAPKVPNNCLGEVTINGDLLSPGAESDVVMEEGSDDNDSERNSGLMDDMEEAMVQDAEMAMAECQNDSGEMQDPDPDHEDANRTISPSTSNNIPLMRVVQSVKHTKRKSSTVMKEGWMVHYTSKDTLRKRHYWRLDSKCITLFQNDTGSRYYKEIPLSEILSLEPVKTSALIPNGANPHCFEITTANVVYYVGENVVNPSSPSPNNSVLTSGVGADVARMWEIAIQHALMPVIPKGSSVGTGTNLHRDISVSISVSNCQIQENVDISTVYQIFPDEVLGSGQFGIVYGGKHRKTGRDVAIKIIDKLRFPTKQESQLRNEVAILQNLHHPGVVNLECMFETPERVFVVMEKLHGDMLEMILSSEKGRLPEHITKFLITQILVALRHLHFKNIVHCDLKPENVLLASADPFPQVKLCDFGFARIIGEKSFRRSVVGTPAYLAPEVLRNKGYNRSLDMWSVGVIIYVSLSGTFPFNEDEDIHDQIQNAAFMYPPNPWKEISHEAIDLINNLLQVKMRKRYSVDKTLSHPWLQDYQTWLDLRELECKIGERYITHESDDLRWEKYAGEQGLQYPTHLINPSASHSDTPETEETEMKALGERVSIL
Description: Kinase profiling PKD1. Conditions: read-out: residual kinase activity, PKD1.
Text: as §1

In another experiment the target is T4, TAK1 (Homo sapiens, UniProt O43318).
T4 sequence (O43318 1-303 limits assumed): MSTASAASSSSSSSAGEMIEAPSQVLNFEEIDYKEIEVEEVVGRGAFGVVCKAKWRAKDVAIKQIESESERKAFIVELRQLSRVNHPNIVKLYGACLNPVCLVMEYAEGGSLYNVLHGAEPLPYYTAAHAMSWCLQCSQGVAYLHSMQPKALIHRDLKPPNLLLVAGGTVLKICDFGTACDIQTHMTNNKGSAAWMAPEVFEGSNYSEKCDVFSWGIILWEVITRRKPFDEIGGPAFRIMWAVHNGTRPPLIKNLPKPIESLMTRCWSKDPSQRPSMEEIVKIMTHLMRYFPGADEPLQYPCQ
T4 sequence (Q15750 437-504 partner limits assumed): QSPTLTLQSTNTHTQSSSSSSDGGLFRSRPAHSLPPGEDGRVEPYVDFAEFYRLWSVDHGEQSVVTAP
Description: Kinase profiling TAK1. The settings on record: read-out: residual kinase activity, TAK1.
Text: as §1

The target in a further experiment is PRK2 (Homo sapiens, UniProt Q16513). The experiment is described as follows: Kinase profiling PRK2. The settings on record: read-out: residual kinase activity, PRK2.
Text: as §1

The target in a further experiment is NEK6 (Homo sapiens, UniProt Q9HC98). Description: Kinase profiling NEK6. Conditions: read-out: residual kinase activity, NEK6.
Text: as §1

In a further experiment the target is RSK1 (Homo sapiens, UniProt Q15418). The experiment is described as follows: Kinase profiling RSK1. Conditions: read-out: residual kinase activity, RSK1.
Text: as §1

The next experiment deals with STK33 (Homo sapiens, UniProt Q9BYT3). Description: Kinase profiling STK33. Conditions: read-out: residual kinase activity, STK33.
Text: as §1

Another experiment deals with HER4 (Homo sapiens, UniProt Q15303). Description: Kinase profiling HER4. Conditions: read-out: residual kinase activity, HER4.
Text: as §1

The next experiment relates to AMPK. Description: Kinase profiling AMPK. Conditions: 100 micromolar inhibitor concentration; 100 is no change.
Text: as §1

A further experiment addresses ERK2 (Homo sapiens, UniProt P28482). Description: Kinase profiling ERK2. The settings on record: read-out: residual kinase activity, ERK2.
Text: as §1

A further experiment has as its target OSR1 (Homo sapiens, UniProt O95747). Description: Kinase profiling OSR1. The settings on record: read-out: residual kinase activity, OSR1.
Text: as §1

The target in the next experiment is PKCγ (Homo sapiens, UniProt P05129). The experiment is described as follows: Kinase profiling PKCγ. Conditions: read-out: residual kinase activity, PKCγ.
Text: as §1

In the next experiment the target is ROCK 2 (Homo sapiens, UniProt O75116). Description: Kinase profiling ROCK 2. The settings on record: read-out: residual kinase activity, ROCK 2.
Text: as §1

The mark [1] stands for this setting: 100 micromolar inhibitor concentration, 100 is no change.

Each structure is given as a SMILES string. Like-named read-outs stand apart in the source and are kept apart here.

Sequence of OSR1 (O95747 whole entry): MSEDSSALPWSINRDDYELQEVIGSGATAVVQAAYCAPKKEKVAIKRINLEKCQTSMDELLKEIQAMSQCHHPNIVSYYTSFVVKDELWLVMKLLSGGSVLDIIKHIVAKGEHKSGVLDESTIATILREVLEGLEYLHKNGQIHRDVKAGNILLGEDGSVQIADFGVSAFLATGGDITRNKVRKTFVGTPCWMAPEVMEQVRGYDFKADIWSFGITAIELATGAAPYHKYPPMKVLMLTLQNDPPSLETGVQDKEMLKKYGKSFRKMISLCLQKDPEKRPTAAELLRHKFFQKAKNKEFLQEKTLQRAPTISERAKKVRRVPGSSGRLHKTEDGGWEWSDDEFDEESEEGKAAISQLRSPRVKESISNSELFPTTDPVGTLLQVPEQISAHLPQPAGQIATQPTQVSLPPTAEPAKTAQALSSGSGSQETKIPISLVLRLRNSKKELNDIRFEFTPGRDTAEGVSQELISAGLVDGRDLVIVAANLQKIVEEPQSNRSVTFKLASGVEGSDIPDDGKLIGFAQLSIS
Sequence of ERK2 (P28482 whole entry, species assumed): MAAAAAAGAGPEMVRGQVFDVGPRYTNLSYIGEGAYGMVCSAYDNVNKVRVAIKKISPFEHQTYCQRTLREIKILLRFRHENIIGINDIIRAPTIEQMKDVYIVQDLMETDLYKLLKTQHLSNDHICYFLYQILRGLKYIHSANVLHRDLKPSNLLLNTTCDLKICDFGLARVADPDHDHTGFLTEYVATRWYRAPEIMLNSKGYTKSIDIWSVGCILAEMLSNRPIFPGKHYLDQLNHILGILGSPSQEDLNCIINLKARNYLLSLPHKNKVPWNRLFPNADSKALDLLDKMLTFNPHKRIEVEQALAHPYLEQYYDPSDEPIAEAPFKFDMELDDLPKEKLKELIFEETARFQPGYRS
Sequence of PAK2 (Q13177 whole entry, species assumed): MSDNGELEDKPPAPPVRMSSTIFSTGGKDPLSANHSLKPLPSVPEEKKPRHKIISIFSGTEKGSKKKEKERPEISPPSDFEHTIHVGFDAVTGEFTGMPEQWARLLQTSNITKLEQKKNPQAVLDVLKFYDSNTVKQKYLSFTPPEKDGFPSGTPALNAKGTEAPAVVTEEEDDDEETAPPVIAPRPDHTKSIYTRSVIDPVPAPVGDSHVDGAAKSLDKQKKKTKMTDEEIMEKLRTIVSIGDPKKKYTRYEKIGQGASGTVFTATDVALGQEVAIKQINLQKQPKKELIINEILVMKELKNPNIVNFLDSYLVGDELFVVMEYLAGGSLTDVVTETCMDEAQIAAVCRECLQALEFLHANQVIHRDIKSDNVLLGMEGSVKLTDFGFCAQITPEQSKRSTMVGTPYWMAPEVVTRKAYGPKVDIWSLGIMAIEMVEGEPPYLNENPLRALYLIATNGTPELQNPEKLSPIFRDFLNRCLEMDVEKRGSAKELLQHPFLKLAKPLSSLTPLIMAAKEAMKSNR
Sequence of HER4 (Q15303 26-1308, species assumed): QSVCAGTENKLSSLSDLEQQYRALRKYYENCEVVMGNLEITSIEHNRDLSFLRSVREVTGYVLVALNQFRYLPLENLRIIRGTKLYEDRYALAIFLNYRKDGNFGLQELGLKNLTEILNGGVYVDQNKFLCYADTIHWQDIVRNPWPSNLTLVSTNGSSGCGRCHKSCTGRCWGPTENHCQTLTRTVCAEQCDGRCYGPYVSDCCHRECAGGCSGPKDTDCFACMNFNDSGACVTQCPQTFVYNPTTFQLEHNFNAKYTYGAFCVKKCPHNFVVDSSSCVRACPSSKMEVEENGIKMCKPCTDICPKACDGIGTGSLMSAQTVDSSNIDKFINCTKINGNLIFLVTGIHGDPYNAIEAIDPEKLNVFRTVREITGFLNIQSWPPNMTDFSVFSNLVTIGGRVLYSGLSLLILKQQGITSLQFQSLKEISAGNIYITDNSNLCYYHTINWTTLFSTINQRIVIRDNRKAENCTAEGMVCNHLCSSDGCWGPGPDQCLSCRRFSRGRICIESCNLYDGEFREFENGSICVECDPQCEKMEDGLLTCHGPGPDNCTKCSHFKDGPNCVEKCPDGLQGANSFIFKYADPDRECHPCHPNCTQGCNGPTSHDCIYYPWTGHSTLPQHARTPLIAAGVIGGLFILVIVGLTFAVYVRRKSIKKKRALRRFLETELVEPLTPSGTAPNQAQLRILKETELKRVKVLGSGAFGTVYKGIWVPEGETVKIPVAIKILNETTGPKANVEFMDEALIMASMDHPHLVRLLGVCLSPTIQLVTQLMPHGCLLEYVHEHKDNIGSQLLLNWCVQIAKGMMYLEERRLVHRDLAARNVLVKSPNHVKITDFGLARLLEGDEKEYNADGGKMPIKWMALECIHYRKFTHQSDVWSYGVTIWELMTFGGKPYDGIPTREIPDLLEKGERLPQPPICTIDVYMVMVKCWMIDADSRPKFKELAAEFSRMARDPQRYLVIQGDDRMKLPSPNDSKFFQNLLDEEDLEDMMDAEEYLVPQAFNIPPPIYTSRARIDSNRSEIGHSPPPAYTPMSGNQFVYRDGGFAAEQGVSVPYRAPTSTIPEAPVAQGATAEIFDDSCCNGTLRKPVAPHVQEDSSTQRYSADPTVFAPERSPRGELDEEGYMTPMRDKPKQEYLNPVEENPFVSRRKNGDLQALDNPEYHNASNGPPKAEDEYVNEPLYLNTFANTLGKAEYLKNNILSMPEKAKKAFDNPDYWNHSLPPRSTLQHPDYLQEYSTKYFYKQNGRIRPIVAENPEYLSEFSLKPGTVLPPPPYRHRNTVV
Sequence of STK33 (Q9BYT3 whole entry, species assumed): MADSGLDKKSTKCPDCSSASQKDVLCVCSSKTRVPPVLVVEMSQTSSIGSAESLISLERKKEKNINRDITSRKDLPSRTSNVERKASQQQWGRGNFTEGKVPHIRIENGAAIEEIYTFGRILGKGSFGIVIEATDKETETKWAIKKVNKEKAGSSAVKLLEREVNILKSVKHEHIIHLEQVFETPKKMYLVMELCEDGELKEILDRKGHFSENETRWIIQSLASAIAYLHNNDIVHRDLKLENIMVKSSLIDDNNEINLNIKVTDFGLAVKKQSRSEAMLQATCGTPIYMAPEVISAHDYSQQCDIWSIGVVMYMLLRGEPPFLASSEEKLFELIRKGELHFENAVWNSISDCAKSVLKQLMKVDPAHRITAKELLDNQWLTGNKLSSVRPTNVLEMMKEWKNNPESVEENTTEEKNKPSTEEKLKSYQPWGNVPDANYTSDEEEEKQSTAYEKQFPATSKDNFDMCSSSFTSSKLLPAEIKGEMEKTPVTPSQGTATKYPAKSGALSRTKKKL
Sequence of PRK2 (Q16513 whole entry, species assumed): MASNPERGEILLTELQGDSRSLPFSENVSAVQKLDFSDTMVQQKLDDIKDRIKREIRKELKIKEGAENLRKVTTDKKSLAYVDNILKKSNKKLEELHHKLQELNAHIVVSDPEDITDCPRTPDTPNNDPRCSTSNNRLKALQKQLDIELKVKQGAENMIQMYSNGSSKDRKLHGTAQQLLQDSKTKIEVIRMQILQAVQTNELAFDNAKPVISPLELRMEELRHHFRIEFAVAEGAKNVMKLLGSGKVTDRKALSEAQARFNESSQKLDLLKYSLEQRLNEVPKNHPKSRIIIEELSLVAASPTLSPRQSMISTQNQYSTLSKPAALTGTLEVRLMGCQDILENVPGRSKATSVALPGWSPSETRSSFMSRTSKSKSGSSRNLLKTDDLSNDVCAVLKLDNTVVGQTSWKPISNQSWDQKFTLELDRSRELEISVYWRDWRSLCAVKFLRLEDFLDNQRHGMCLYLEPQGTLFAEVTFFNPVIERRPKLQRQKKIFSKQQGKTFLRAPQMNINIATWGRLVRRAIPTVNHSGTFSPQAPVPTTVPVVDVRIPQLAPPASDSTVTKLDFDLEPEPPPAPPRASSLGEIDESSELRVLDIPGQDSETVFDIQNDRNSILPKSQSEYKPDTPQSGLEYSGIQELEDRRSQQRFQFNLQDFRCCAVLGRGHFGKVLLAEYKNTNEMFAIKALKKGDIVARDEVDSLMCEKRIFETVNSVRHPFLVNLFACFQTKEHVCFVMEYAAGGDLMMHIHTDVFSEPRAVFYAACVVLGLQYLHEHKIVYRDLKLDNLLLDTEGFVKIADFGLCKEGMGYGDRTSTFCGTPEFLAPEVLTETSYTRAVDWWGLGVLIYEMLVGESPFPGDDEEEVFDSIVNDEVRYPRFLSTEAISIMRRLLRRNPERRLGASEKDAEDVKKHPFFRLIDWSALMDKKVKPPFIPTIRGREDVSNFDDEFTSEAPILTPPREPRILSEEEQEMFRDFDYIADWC

`CC(=O)Nc1nc2cc(O)ccc2s1` [Compound 01-66, N-(5-hydroxybenzo[d]thiazol-2-yl)acetamide]: the remaining activity at 100 µM was determined as 70% at MKK6; 63% on JNK2; 69% on MST2; 93% on PAK2; 30% at PKD1; 30% on TAK1. Also, the remaining activity at 100 µM on PRK2 was determined as 67%; on NEK6 it was 82%; on RSK1, 44%; at STK33 it was 52%; at HER4, 40%; on ERK2, 104%. Also, the remaining activity at 100 µM on OSR1 was determined as 95%; at PKCγ it was 99%; on ROCK 2 it was 56%. Besides, the “residual kinase activity, AMPK” value with AMPK is recorded as 61.

Take `CC(=O)Nc1nc2ccc(O)cc2s1` [Compound 01-71]: the remaining activity at 100 µM on MKK6 (setting [1]) amounted to 78%; on JNK2 (setting [1]), 82%; at MST2 (setting [1]) it was 56%; on PAK2 (setting [1]), 102%; at PKD1 (setting [1]) it was 37%; at TAK1 (setting [1]), 11%. The remaining activity at 100 µM at PRK2 (setting [1]) worked out at 36%; at NEK6 (setting [1]) it was 75%; at RSK1 (setting [1]), 25%; at STK33 (setting [1]), 41%; on HER4 (setting [1]), 36%; on ERK2 (setting [1]), 83%. The remaining activity at 100 µM stood at 78% at OSR1 (setting [1]), 76% on PKCγ (setting [1]) and 34% on ROCK 2 (setting [1]). For the same compound, the “residual kinase activity, AMPK” value with AMPK came out at 37.

Consider `CC(=O)Nc1nc2ccc(C(F)(F)F)cc2s1` [Compound 01-90], for which the remaining activity at 100 µM on MKK6 (setting [1]) was 85%; on JNK2 (setting [1]), 87%; on MST2 (setting [1]) it was 99%; on PAK2 (setting [1]) it was 103%; on PKD1 (setting [1]) it was 119%; on TAK1 (setting [1]), 83%. Also, the remaining activity at 100 µM on PRK2 (setting [1]) was 94%; on NEK6 (setting [1]) it was 107%; at RSK1 (setting [1]), 74%; at STK33 (setting [1]) it was 46%; at HER4 (setting [1]), 97%; on ERK2 (setting [1]) it was 102%. The remaining activity at 100 µM came out at 75% at OSR1 (setting [1]), 53% at PKCγ (setting [1]) and 80% at ROCK 2 (setting [1]). Moreover, in the experiment with AMPK, the “residual kinase activity, AMPK” value is reported as 90.

As to `CC(=O)Nc1nc2ccc(C#N)cc2s1` [Compound 01-94], the remaining activity at 100 µM on MKK6 (setting [1]) came to 98%; on JNK2 (setting [1]) it was 82%; on MST2 (setting [1]) it was 56%; on PAK2 (setting [1]), 101%; at PKD1 (setting [1]) it was 97%; on TAK1 (setting [1]), 17%. In addition, the remaining activity at 100 µM on PRK2 (setting [1]) worked out at 70%; on NEK6 (setting [1]), 86%; on RSK1 (setting [1]), 51%; at STK33 (setting [1]), 35%; at HER4 (setting [1]), 90%; at ERK2 (setting [1]) it was 91%. For the same compound, the remaining activity at 100 µM at OSR1 (setting [1]) stood at 79%; on PKCγ (setting [1]), 83%; at ROCK 2 (setting [1]) it was 69%. Moreover, the “residual kinase activity, AMPK” value with AMPK is on record as 73.

(Values after patent publication US10231954B2, “Neurodegenerative therapies” (LYTIX BIOPHARMA AS, priority 2014, dated 2019).)
